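Growth conditions: 96-well plates. Treatment: test compound, 48 hours, 5 concentrations. Analysis: linear interpolation between bracketing concentrations; unreached endpoints set to highest concentration. GI50: concentration for 50% inhibition of growth. TGI: total growth inhibition.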
Legend:
Assay in all cases: NCI-60 cell line screen, 48 h
HOP-62 NSCLC = system: HOP-62 NSCLC
KM12 colon = system: KM12 colon
LOX IMVI melanoma = system: LOX IMVI melanoma
MDA-MB-231 breast = system: MDA-MB-231 breast
NCI/ADR-RES ovarian = system: NCI/ADR-RES ovarian
SK-MEL-2 melanoma = system: SK-MEL-2 melanoma
SW-620 colon = system: SW-620 colon
CCRF-CEM leukemia = system: CCRF-CEM leukemia
MALME-3M melanoma = system: MALME-3M melanoma
SNB-75 CNS = system: SNB-75 CNS

Structure (SMILES) | GI50 (HOP-62 NSCLC) [µM] | TGI (HOP-62 NSCLC) [µM] | GI50 (KM12 colon) [µM] | TGI (KM12 colon) [µM] | GI50 (LOX IMVI melanoma) [µM] | TGI (LOX IMVI melanoma) [µM] | GI50 (MDA-MB-231 breast) [µM] | TGI (MDA-MB-231 breast) [µM] | GI50 (NCI/ADR-RES ovarian) [µM] | TGI (NCI/ADR-RES ovarian) [µM] | GI50 (SK-MEL-2 melanoma) [µM] | TGI (SK-MEL-2 melanoma) [µM] | GI50 (SW-620 colon) [µM] | TGI (SW-620 colon) [µM] | TGI (CCRF-CEM leukemia) [µM] | TGI (MALME-3M melanoma) [µM] | TGI (SNB-75 CNS) [µM] | GI50 (CCRF-CEM leukemia) [µM] | GI50 (SNB-75 CNS) [µM] | GI50 (MALME-3M melanoma) [µM]
COc1cc(/C=C2\C[C@H]3[C@@H]4CC=C5C[C@@H](O)CC[C@]5(C)[C@H]4CC[C@]3(C)[C@H]2O)ccc1OCCN1CCCC1 | 9.67 | 20.8 | 9.69 | 19.8 | 17.9 | > 50 | 11.7 | 23 | 12.6 | 34.7 | 16.4 | > 50 | 23.7 | > 50 |  |  |  |  |  | 
O=C1CC(c2c(-c3ccccc3)[nH]c3ccccc23)C(=O)N1 (centres undefined) |  | > 100 |  | > 100 |  |  |  |  |  |  |  | > 100 |  | > 100 | > 100 | > 100 | > 100 |  |  | 
COC(=O)C(Cc1nc2ccccc2[nH]c1=O)/C(=N\NC(C)(C)C)C(=O)Nc1c(C)cc(Br)cc1C (centres undefined) |  | > 100 |  | > 100 |  | 40.7 |  |  |  |  |  | > 100 |  | 80.1 | 57.3 | 62.2 |  |  |  | 
CO/C=C/C(=O)c1cc2cnc3c(=N)cc(NC(=O)C(C)C)c([nH]1)c23 | 0.0844 | 1.04 | 0.196 | 1.86 | 0.0694 | 0.429 | 0.0883 | 0.66 |  |  | 0.0907 | 0.299 | 0.0744 | 0.718 | 4.94 |  | 0.0982 | 0.0184 | 0.00763 | 
O=S(=O)([O-])c1ccc(N=Cc2ccccc2[O-])cc1.O=S(=O)([O-])c1ccc(N=Cc2ccccc2[O-])cc1.[O]=[U+2]=[O] | 81.7 | > 100 |  |  | > 100 | > 100 |  |  |  |  | > 100 | > 100 | > 100 | > 100 | > 100 | > 100 | > 100 | > 100 | > 100 | > 100
COC(=O)C(=O)C(C(=O)C(=O)Nc1cccc(C(C)=O)c1)c1nc2ccc([N+](=O)[O-])cc2[nH]c1=O (centres undefined) |  | > 100 |  | > 100 |  | > 100 |  |  |  |  |  | > 100 |  | > 100 | > 100 | > 100 |  |  |  | 
COc1c(C)cc(O)cc1C=O |  | > 100 |  | > 100 |  | > 100 |  |  |  |  |  | > 100 |  | > 100 | > 100 | > 100 | > 100 |  |  | 
CC(=O)Nc1ccccc1-c1nc2ccccc2nc1C |  | > 100 |  | > 100 |  | > 100 |  |  |  |  |  | > 100 |  | > 100 | > 100 | > 100 | > 100 |  |  | 
O=c1cc(-c2ccccc2)oc2ccc(OC/C(=N/O)c3ccccc3)cc12 | 9.62 | > 50 | 1.95 | > 50 | 2.76 | 20.2 | 2.63 | > 50 | 3.3 | > 50 | 29.6 | > 50 | 1.74 | > 50 | > 50 |  | > 50 | 1.51 | 2.76 | 
CCOC(=O)C1SC(=Nc2cccc(Cl)c2C)N=C1C (centres undefined) |  | > 100 |  | 77.7 |  | 32 |  |  |  |  |  | 37 |  | 57.5 |  | 42.4 | 61.4 |  |  | 
CCC(CC)c1nc(Nc2ccc(C(=O)OC)cc2)c2ccccc2n1 | 10.4 | 21.6 | 8.01 | 18 | 11.1 | 31.7 | 8.59 | 22.8 | 24.3 | > 34.7 | 9.39 | 20 | 12.7 | > 27.7 | 48.9 |  |  | 6.64 |  | 
Oc1ccc([Te]CCNCC[Te]c2ccc(O)cc2)cc1 |  | 46.5 |  | > 100 |  | 43 |  |  |  |  |  |  |  | > 100 | > 100 | 69.3 | 70.8 |  |  | 
C=CC(=O)NCCSCCCOC1(C(=O)O)CC(O)C(NC(C)=O)C(C(O)C(O)CO)O1 (centres undefined) |  |  |  | > 100 |  | > 100 |  |  |  |  |  | > 100 |  | > 100 |  | > 100 |  |  |  | 
COc1cccc2ccc(C(=O)c3ccccc3)nc12 |  | > 100 |  | > 100 |  | > 100 |  |  |  |  |  | > 100 |  | > 100 | > 100 | > 100 | > 100 |  |  | 
NCCCNc1nc2ccccc2c2c(=O)c3cc(F)cc(F)c3sc12 |  |  | 1.74 | 3.26 |  |  | 1.49 | 3.02 | 1.81 | 3.69 | 2.67 | 7.04 | 1.64 | 3.19 |  | 3.21 | 2.7 |  | 1.36 | 1.62
CN1C(=O)CCC2[C@@H]3CC=C4C[C@@H](O)CC[C@]4(C)C3CC[C@@]21C (some centres undefined) |  | > 100 |  | > 100 |  |  |  |  |  |  |  | > 100 |  | > 100 | > 100 | > 100 | > 100 |  |  | 
CCCCCCCCOCC(O)COC(C)C (centres undefined) |  | > 100 |  |  |  | > 100 |  |  |  |  |  |  |  | > 100 | 52.8 | > 100 |  |  |  | 
COc1ccc(C(CCC(C)=O)C(=O)O)cc1OC (centres undefined) |  | > 100 |  | > 100 |  | > 100 |  |  |  |  |  | > 100 |  | > 100 |  | > 100 | > 100 |  |  | 
COC(=O)CCC(NC(=S)N/N=C/c1ccccn1)C(=O)OC (centres undefined) |  | > 100 |  | > 100 |  | > 100 |  |  |  |  |  | > 100 |  | > 100 | > 100 | > 100 | > 100 |  |  | 
C[n+]1c(/C=C/c2c[nH]c3ccccc23)ccc2ccccc21 | 12.8 | 31.8 | 4.61 | 22.3 | 11 | 23.1 | 10.5 | 23 | > 100 | > 100 | 16.1 | 30.6 | 4 | 19.4 | 45 |  | 27.4 | 5.59 | 14.1 | 
O=[N+]([O-])c1ccc(C2CC(c3ccccc3Cl)=Nc3ccccc3S2)cc1 (centres undefined) |  | 68.2 |  | 13.4 |  | 11.8 |  |  |  |  |  | 24.5 |  | 4.78 | 6.77 | 24.9 | 44.1 |  |  | 

From PubChem BioAssay (NCI)
